Test results published in PMC7887068 (Peptides, 2021).
Where two headings read alike, the source gives them in different places.

What was measured:
[1] = system: ACE2; settings: read-out: half maximum inhibitory concentration (IC50); cited from earlier work
[2] = target: T1, recombinant human ACE2 (rhACE2) (Homo sapiens, UniProt Q9BYF1); assay: MLN-4760 inhibition of rhACE2 metabolism of angiotensin peptides; assay type: biochemical
[3] = target: T1, recombinant human ACE2 (rhACE2); settings: pH 7.0
[4] = system: Human neutrophil collagenase (matrix metalloproteinase 8, MMP8); settings: 10 mM zinc; activity increases up to 100 μM zinc; cited from earlier work
[5] = target: T1, recombinant human ACE2 (rhACE2); assay: Zinc inhibition of rhACE2 metabolism of Ang II to Ang 1–7; assay type: biochemical
[6] = system: CC[C@H](C)[C@H](NC(=O)[C@H](Cc1ccc(O)cc1)NC(=O)[C@@H](NC(=O)[C@H](CCCNC(=N)N)NC(=O)[C@@H](N)CC(=O)O)C(C)C)C(=O)N[C@@H](Cc1cnc[nH]1)C(=O)N1CCC[C@H]1C(=O)N[C@@H](Cc1ccccc1)C(=O)O; assay type: biochemical, human; settings: other: average of the two series (Tables 2 and 3), Ang II to Ang 1–7

T1 sequence (Q9BYF1 18-740 limits assumed): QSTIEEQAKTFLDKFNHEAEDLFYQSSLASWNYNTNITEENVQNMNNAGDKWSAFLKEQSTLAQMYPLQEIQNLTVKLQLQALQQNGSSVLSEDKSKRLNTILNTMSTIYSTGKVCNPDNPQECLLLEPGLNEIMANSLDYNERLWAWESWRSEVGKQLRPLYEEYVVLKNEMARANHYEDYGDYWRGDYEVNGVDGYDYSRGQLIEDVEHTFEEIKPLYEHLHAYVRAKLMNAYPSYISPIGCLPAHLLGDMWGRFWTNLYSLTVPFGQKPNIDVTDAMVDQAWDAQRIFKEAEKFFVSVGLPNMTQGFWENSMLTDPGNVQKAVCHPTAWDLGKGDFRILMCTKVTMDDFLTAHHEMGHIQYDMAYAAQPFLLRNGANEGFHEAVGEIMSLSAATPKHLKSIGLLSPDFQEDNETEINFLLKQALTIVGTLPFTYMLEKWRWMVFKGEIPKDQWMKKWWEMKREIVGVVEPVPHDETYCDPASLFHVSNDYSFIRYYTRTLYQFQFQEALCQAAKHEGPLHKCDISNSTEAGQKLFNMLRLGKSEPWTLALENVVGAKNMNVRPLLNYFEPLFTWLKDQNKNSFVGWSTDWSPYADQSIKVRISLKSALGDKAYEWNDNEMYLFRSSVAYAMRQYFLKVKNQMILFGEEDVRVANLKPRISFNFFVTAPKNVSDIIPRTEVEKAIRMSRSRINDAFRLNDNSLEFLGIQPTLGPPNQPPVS

CC(C)C[C@H](N[C@@H](Cc1cncn1Cc1cc(Cl)cc(Cl)c1)C(=O)O)C(=O)O [MLN-4760]
IC50 [1]: 0.0004 µM
inhibition of metabolism of Ang II to Ang 1–7 ([2]; 1 μM MLN-4760): nearly all
inhibition at 1 µM ([2]; read-out: inhibition of rhACE2 activity): ~90%

CC(=O)[O-].CC(=O)[O-].[Zn+2] [zinc, zinc acetate]
Log IC50 for inhibition of rhACE2 metabolism of Mca-APK(dnp) ([3]; HEPES buffer): −3.77
Log IC50 for inhibition of rhACE2 metabolism of Mca-APK(dnp) ([3]; MES buffer): −3.85
Log IC50 for inhibition of rhACE2 metabolism of Mca-APK(dnp) ([3]; Tris buffer): −3.82
collagenase activity remaining [4]: ~ 20%
inhibition of ACE2 activity ([5]; 1 mM zinc): completely
IC50 ([5]; read-out: IC50 for inhibition of rhACE2 metabolism of Ang II to Ang 1–7, zinc 1 to 1000 μM, 100 μM Ang II, rhACE2 48.4 ng/ml (569 pM), 50 mM Hepes, 100 mM NaCl, pH 7.0, 30 min, 37°C, mean ± SEM, n=2): 69.1 ± 1.1 µM

recombinant human ACE2 (rhACE2) (Homo sapiens)
Km [6]: 8.47 µM
kcat/Km [6]: 1.02 μM^−1,sec^−1
